One series concerns the target T1, human CB1 receptor (Homo sapiens, UniProt P21554).
T1 construct: expressed in transfected cells; host or cells: HEK-293
Description: CB1 receptor binding, [3H]CP55,940 displacement. The following applies: HEK-293 membranes, means ± SE, N = 3. How it is done:
(§1) Membrane Preparations. HEK-293 cells stably expressing the human CB1 receptor were cultured in DMEM with 10% FBS and Chinese Hamster Ovary (CHO) cells stably expressing the human CB2 receptor were cultured in DMEM with 10% FCS. Cells were harvested by replacement of the media with cold phosphate-buffered saline containing 1 mM EDTA followed by centrifugation at 1000×g for 5 min at 4° C. The pellet was resuspended in 50 mM Tris-HCl containing 320 mM sucrose, 2 mM EDTA and 5 mM MgCl2 (pH 7.4) (centrifugation buffer), then centrifuged at 1000×g for 10 min at 4° C. and the resulting supernatant was saved. This process was repeated twice. The supernatant fractions were combined and centrifuged at 40,000×g for 30 min at 4° C. The resulting P2 pellet was resuspended in assay buffer (50 mM Tris-HCl (pH 7.4), 3 mM MgCl2, 0.2 mM EGTA, and 100 mM NaCl) and protein was measured. Membranes were stored at −80° C. until use.
(§2) Receptor Binding. Membrane homogenates (50 μg) were incubated with 0.5 nM [^3H]CP55,940 in the presence of varying concentrations (1 nM-10 μM) of test compounds in 0.5 ml of buffer containing BSA (5 mg/ml). Non-specific binding was measured in the presence of 1 μM CP55,940. The assay was incubated at 30° C. for 1 hr and terminated by addition of ice cold 50 mM Tris-HCl+BSA (1 mg/ml) (pH 7.4) followed by filtration under vacuum through Whatman GF/B glass fiber filters with 3 washes with cold Tris buffer. Bound radioactivity was determined by liquid scintillation spectrophotometry at 50% efficiency after extraction by shaking samples for 30-60 min with Budget-Solve scintillation fluid. Data are reported as the mean ±SEM of three experiments, each performed in triplicate. Ki values were calculated from displacement data using EBDA (Equilibrium Binding Data Analysis; BIOSOFT, Milltown, N.J.).

In another series the target is T2, human CB2 receptor (Homo sapiens, UniProt P34972).
T2 construct: expressed in transfected cells; host or cells: CHO
The series is described as follows: CB2 receptor binding, [3H]CP55,940 displacement. The following applies: CHO membranes, means ± SE, N = 3. How it is done: as §1, §2

Series [1] has as its system ICR mice. The series is described as follows: Tetrad model: inhibition of spontaneous activity (SA). In kind it is in vivo. The following applies: Mus musculus, iv, spontaneous activity 5-15 min after injection; read-out: S.A. ED50. The text has this:
(§3) ICR Mice and Materials. Male ICR mice (Harlan Laboratories, Indianapolis, Ind.) weighing between 24 to 30 g were used in all experiments. Mice were maintained on a 14:10-hr light/dark cycle with food and water available ad lib. All test groups consisted of 6 to 12 mice. Analogs dissolved in a vehicle consisting of ethanol, emulphor and saline in a ratio of 1:1:18. All chemicals for receptor binding studies were purchased from Sigma (St. Louis, Mo.) except the following: Dulbeco's modified Eagle's medium (DMEM) from GIBCO BRL (Grand Island, N.Y.), Whatman GF/B glass fiber filters from Fischer Scientific (Pittsburg, Pa.), fetal calf serum (FCS) and fetal bovine serum (FBS) from HyClone Laboratories (Logan, Utah) and Budget-Solve scintillation fluid from RPI Corp. (Mount Prospect, Ill.).
(§4) Behavioral Evaluations. All animals were allowed to acclimate to the observation room overnight. Behavioral effects were assessed in the tetrad model to measure potency in decreasing spontaneous activity (SA), antinociception [tail-flick procedure, TF], rectal temperature (RT) and relative immobility (RI) catalepsy. The baselines for tail-flick latency (2-4 sec) and rectal temperature were determined prior to i.v. injections. Baseline rectal temperatures were measured using a telethermometer and a thermometer probe inserted to 25 mm (Yellow Springs Instrument Co., Yellow Springs, Ohio). The mice treated i.v. with an analog were placed in individual photocell activity chambers 5 min later. Spontaneous activity wasp monitored for 10 min in a Digiscan Animal Activity Monitor (Omnitech Electronice, Inc., Columbus, Ohio) as measured by the number of interruptions of 16 photocell beams per chamber. The total number of beam interruptions during the 10-min period was determined and presented as total counts. The mice were then assessed at 20 min following the i.v. injection for antinociception using the tail-flick reaction time to a heat stimulus. A 10-sec maximum latency was used in order to avoid tail injury. The results are presented as % MPE and are calculated as follows: % MPE=[(test latency-control latency)/(10 sec−control latency)]×100.
(§5) Data analysis. Based on data obtained from numerous previous in vivo studies with cannabinoids, maximal cannabinoid effects in each in vivo pharmacological procedure were estimated as follows: 90% inhibition of spontaneous activity, 100% MPE in the tail flick procedure, and −6° C. change in rectal temperature. Means and standard error (S.E.) were calculated for % MPE, number of photocell disruptions, % ring immobility and Δ° C. Analysis of variance (ANOVA) was used to determine significant differences between control and treatment groups followed by Dunnett's t-test post-hoc analysis. Statistical analysis was performed using StatView, version 5.0 (SAS Institute, Cary, N.C.). Significance was defined as a “p”<0.05. ED50's were defined as the dose at which half maximal effect occurred. For drugs that produced one or more cannabinoid effect, ED50's were calculated separately using least-squares linear regression on the linear part of the dose-effect curve for each measure in the mouse tetrad, plotted against log10 transformation of the dose.

The subject of series [2] is ICR mice. Description: Tetrad model: antinociception in the tail-flick procedure (TF). In kind it is in vivo. The following applies: Mus musculus, iv, 20 min; i.v., tail-flick 20 min after injection; read-out: T.F. ED50.
From the text: as §3, §4, §5

In series [3] the test system is ICR mice. Description: Tetrad model: relative immobility (RI), ring-immobility test. In kind it is in vivo. The following applies: Mus musculus, iv, 40 min; i.v., ring immobility 40 min after injection; read-out: R.I. ED50.
From the text: as §3
Rectal temperature was measured 30 min after the i.v. injection. The change in rectal temperature (Δ° C.) following analog administration was calculated for each animal. Relative immobility (catalepsy) was measured 40 min after the i.v. injection by the ring-immobility test. Mice were placed on a ring 5.5 cm in diameter attached to a stand at a height of 16 cm. The amount of time the mice spent motionless on the ring during the 5-minute procedure was measured, with the criteria of immobility being defined as the absence of all voluntary movements, including whisker movement, but excluding respiration. The percent immobility was calculated as: % immobility=[time immobile (sec)]/[length of session (sec)]×100. Mice that fell from the ring or actively jumped were allowed five attempts. After the fifth escape these mice were removed from the ring and not included in the calculations. Data were collected from 6-12 mice for each condition tested.
as §5

Series [4] deals with retinal ganglionic cells (RGC). Description: Rat NMDA model: retinal flat mounts, RGC count. The following applies: NMDA treatment only. In kind it is in vivo. How it is done: Rat NMDA Model. To mimic glaucomatous damage to the retina without a potentially confounding effect on IOP, retinal damage was induced by NMDA in a rat model. Following baseline measurements, e.g. IOP, ERG, slit lamp, fundus photography, heart rate and blood pressure, N-methyl D-aspartate (NMDA, 2 μl of 10 mM) was injected intravitreally to induce RGC damage. […] For positive identification, a hand scanner was used each time the rat was examined. This was necessary since the examiners will be masked as to treatment group. Treatment groups consisted of either NMDA only (control), O-1812 (0.1%) or O-2545 (0.1%), O-1812 (0.1%)+SR-141716 (2 mM), O-2545 (0.1%)+SR-141716 (2 mM), O-1812 (0.1%)+SR-144258 (2 mM) and O-2545 (0.1%)+SR-144258 (2 mM). All experiments were conducted in accordance with the policies of the Institutional Animal Care and Use Committee and the ARVO policy on use of animals in experiments. A minimum of two baseline ERG measurements was recorded 1 wk prior, 1 wk and 2 wk post injection. At the end of each experiment, rats were sacrificed and their eyes were preserved for histological assessment of effects on the retina and optic nerve.
Histology. For retinal flat mounts, retinas were dissected from formalin fixed whole eyes, mounted on superfrost glass slides, stained with hematoxylin and eosin and digitally photographed. For analysis, the retina was divided into four quadrants. A minimum of five 50 μm^2 sections per quadrant were used to count cell number. The cell sections were selected to be equidistant from the optic cup for all quadrants. For optic nerve experiments, the optic nerve was dissected at the margin of the optic disk and embedded in cryo media. Sections of 10 μm thickness were cut and mounted on superfrost glass slides and stained with hematoxylin and eosin. The slides were digitally photographed.

For series [5], the system named is IOP in a rat glaucoma model. The series is described as follows: Combination therapy: IOP in a rat glaucoma model. It is filed as in vivo, Sprague Dawley rats. From the text:
(§6) Rat Glaucoma Model. Compared to acute studies, a chronic rat model of glaucoma was generated. The rats were made glaucomatous by ligating three vortex veins (Hosseini, A. et al. (2006) Chronic topical administration of WIN-55-212-2 maintinas a reduction in IOP in a rat glaucoma model without adverse effects. Exp. Eye Res. 82(5):753-9). More specifically, ocular hypertension was induced in Sprague-Dawley rats by ligating 3 of 4 episcleral veins of the right eye using 9.0 nylon sutures under anesthesia with 3 mg/Kg acepromazine and 20 mg/Kg ketamine. Within 6 wk, IOP increased by at least 5 mm Hg in the operated eye. This intervention produced at least a 30% increase in IOP in the operated eye and lasted for up to 60 weeks. During this time, a 30% loss of retinal function was documented by ERG. […] Thus, the model accurately mimics the progressive damage that occurs in patients with glaucoma.
(§7) Measurements of Intraocular Pressure. IOP elevation was measured under mild sedation using a calibrated Goldmann tonometer modified for rats. Three determinations were averaged for each eye. To account for diurnal variation, all IOP's were measured between 11 am and 1 pm during the daily trough period.
Combination Therapy. Since cannabinoids and timolol, which are both known to reduce IOP, have different mechanisms of action, there is potential for a synergistic effect. The combination of timolol and a synthetic cannabinoid (WIN55 212-2, O-1812, or O-2545) to reduce IOP in a chronic rat model of ocular hypertension was examined. Surgical ligation of three of the four episcleral veins in one eye of Sprague Dawley rats caused a long lasting (>44 week) increase in IOP. IOP was measured by Goldmann tonometry at baseline (−30), 0, 30, 60 and 120 min, as was heart rate and blood pressure. For combination therapy, after baseline IOP measurement, timolol 0.5% was applied topically followed 30 min later by WIN55 212-2 1.0%, O-1812 1.0%, or O-2545 1.0%. In another experiment, O-1812 1.0% and O-2545 1.0% were administered simultaneously. An analysis for ocular irritation was performed by slit lamp examination (SLE) at baseline and 150 min.

For series [6], the system named is IOP in a rat glaucoma model. Description: IOP after topical application in chronic rat glaucoma model. In kind it is in vivo, Sprague-Dawley rats. The following applies: 1.0% topical.
From the text: as §6, §7
Therapeutic Regimen. For IOP Measurements (Topical application) Baseline IOP, heart rate, blood pressure and normal ocular anatomy were documented prior to drug administration. The drugs WIN 55-212-2 (0.1%, 1.0%), O-1812 (0.01%, 0.1%, 1.0%), O-2545 (0.1%, 1.0%) were all dissolved in Tocrisolve™ (vehicle). IOP, heart rate, and blood pressure were measured prior to and after 30, 60 and 120 min after topical administration. Contralateral eyes served as vehicle treated controls.

Consider nine compounds from patent US20080051393A1, “Novel cannabinoids and methods of use” (Eastern Virginia Medical School, priority 2006, published 2008).

As a reminder, the Ki is a measure of affinity in units of concentration, obtained from inhibition or displacement. As usually defined, the ED50 is the dose that gives a 50% effect, or the effect in half of the subjects.

T2 sequence (P34972 whole entry): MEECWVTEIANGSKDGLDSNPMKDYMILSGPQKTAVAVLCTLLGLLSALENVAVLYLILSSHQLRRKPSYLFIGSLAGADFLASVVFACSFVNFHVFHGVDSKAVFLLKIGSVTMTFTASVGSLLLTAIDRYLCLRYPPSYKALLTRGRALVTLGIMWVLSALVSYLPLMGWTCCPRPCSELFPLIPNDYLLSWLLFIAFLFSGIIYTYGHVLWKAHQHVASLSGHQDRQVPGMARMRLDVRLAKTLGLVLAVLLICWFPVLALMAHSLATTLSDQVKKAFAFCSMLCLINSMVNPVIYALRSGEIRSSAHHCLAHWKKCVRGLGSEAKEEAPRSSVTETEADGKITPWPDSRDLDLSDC
T1 sequence (P21554 whole entry): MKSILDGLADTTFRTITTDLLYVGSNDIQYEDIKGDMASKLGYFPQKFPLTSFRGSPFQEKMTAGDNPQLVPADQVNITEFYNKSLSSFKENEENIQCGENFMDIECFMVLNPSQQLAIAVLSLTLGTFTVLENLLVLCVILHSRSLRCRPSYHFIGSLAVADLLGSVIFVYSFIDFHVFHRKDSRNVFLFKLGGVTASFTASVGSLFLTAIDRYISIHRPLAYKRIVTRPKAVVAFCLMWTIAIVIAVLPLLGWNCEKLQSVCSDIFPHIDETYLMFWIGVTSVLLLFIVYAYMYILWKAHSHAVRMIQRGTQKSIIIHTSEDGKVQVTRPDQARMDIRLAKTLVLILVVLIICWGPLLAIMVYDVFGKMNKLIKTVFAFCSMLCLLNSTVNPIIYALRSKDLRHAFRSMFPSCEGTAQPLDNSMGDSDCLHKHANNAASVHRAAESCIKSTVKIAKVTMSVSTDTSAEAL

Regarding `C[C@H](CO)NC(=O)CCC/C=C\C/C=C\C/C=C\C/C=C\C(C)(C)CCCCn1cccn1` [Compound O-2954], the inhibitory constant (Ki) at human CB1 receptor worked out at 127 ± 2.84 nM; at human CB2 receptor, 301 ± 35.6 nM. The median effective dose (ED50) in the series on ICR mice [1] stood at 0.14 mg/kg; in the series on ICR mice [2], 0.19 mg/kg; with ICR mice [3], 0.57 mg/kg.
On the same counts, the results for `C[C@H](CO)NC(=O)CCC/C=C\C/C=C\C/C=C\C/C=C\C(C)(C)CCCCn1cncn1` [Compound O-2955] are 298 ± 33.9 nM, 215 ± 40.5 nM, 2.03 mg/kg, 1.94 mg/kg and 2.21 mg/kg.
The like results for `C[C@H](CO)NC(=O)CCC/C=C\C/C=C\C/C=C\C/C=C\C(C)(C)CCCCN1CCOCC1` [Compound O-4316] were, in that order, 3.88 ± 0.22 nM, 22.4 ± 0.43 nM, 0.11 mg/kg, 0.04 mg/kg and 0.03 mg/kg.
For the compound `C[C@H](CO)NC(=O)CCC/C=C\C/C=C\C/C=C\C/C=C\C(C)(C)CCCCn1ccnc1` [Compound O-4368], the Ki on human CB1 receptor was 90.5 ± 5 nM; at human CB2 receptor, 153 ± 5 nM. The 50% effective dose (ED50) with ICR mice [1] was 0.68 mg/kg; with ICR mice [2], 0.29 mg/kg; in the series on ICR mice [3], 0.25 mg/kg.
Take `C[C@H](CO)NC(=O)CCC/C=C\C/C=C\C/C=C\C/C=C\C(C)(C)CCCCN1CCCCC1` [Compound O-4386]: the figures for the Ki on human CB1 receptor and on human CB2 receptor were 92.8 ± 2.2 nM and 226 ± 24 nM, respectively. In addition, the ED50 worked out at 0.79 mg/kg in the series on ICR mice [1], 0.55 mg/kg with ICR mice [2] and 0.7 mg/kg in the series with ICR mice [3].
The like results for `C[C@H](CO)NC(=O)CCC/C=C\C/C=C\C/C=C\C/C=C\C(C)(C)CCCCN1CCCC1` [Compound O-4388] were, in that order, 99.4 ± 5.9 nM, 404 ± 39 nM, 0.42 mg/kg, 0.38 mg/kg and 0.84 mg/kg.
With `CN[C@H](CC(=O)O)C(=O)O` [NMDA, N-methyl D-aspartate, reference compound], in series [4], the “Reduction of RGC cell density” value was 49%.
Turning to `CC(C)(C)NC[C@H](O)COc1nsnc1N1CCOCC1` [Timolol, timolol], the “IOP at 120 min (% Baseline)” value in series [5] (0.5% topical alone, 120 min) worked out at 91.5 ± 10.2 % Baseline. Also, the “Time for which IOP was significantly decreased” value in series [5] (timolol alone, prior experiments in this model) worked out at 30 min.
Turning to `Cc1c(C(=O)c2cccc3ccccc23)c2cccc3c2n1[C@@H](CN1CCOCC1)CO3` [WIN 55-212-3, reference compound], in series [6], the “Time for which significant IOP reduction was maintained” value is listed as “up to 120 min”. Also, the “Effect on IOP at 30 min” value in series [6] (30 min) is reported as “significantly lowered”. For the same compound, the “IOP after 60 min (% of Baseline)” value in series [6] (60 min) was 86.5 ± 2.5 % of Baseline.
